The IC50 is the concentration at which inhibition is half-maximal.

Molecules are shown by their SMILES.

Selectivity ratio and IC50 data for twelve molecules are collected here from ChEMBL document CHEMBL3826916, “Synthesis and potent antiprotozoal activity of mono/di amidino 2-anilinobenzimidazoles versus Plasmodium falciparum and Trypanosoma brucei rhodesiense” (Bioorg Med Chem, 2016).

Data set [1] is described as follows: Selectivity index, ratio of IC50 for rat L6 cells to IC50 for chloroquine and pyrimethamine resistant Plasmodium falciparum K1 infected in human erythrocytes. In kind it is toxicity, cell-based. The note with it: read-out: Ratio IC50.
Data set [2] in a line: Selectivity index, ratio of IC50 for rat L6 cells to IC50 for bloodstream forms of Trypanosoma brucei rhodesiense STIB 900. In kind it is toxicity, cell-based. The following applies: read-out: Ratio IC50.
In data set [3] the test system is Trypanosoma brucei rhodesiense. Put plainly: Antiparasitic activity against bloodstream forms of Trypanosoma brucei rhodesiense STIB 900 assessed as growth inhibition after 72 hrs by resazurin assay. In kind it is functional, organism-based. The note with it: STIB 900, 72 h.
Another data set has as its system Plasmodium falciparum. The data set is described as follows: Antiplasmodial activity against chloroquine and pyrimethamine resistant Plasmodium falciparum K1 infected in human erythrocytes after 48 hrs by [3H]hypoxanthine incorporation assay. In kind it is functional, organism-based.
Another data set relates to L6. The data set is described as follows: Cytotoxicity against rat L6 cells by alamar blue assay. In kind it is cell-based. (In general: Alamar Blue is a resazurin reagent that responds to reducing activity.)

For the molecule `N=C(NC1CCCCC1)c1ccc(Nc2nc3cc(C(=N)NC4CCCCC4)ccc3[nH]2)cc1`, the selectivity ratio in data set [1] turned out to be 1390; in data set [2] it was 12500. The IC50 was found to be 0.0051 µM in data set [3], 0.0459 µM in the data set on Plasmodium falciparum and 63.7 µM in the data set on L6.
Taken in the same sequence, the figures for `CCC(C)NC(=N)c1ccc(Nc2nc3cc(C(=N)NC(C)CC)ccc3[nH]2)cc1` (stereo not given) were 320, 2060, 0.0455 µM, 0.294 µM and 93.6 µM.
On to `CC(C)NC(=N)c1ccc(Nc2nc3cc(C(=N)NC(C)C)ccc3[nH]2)cc1`, for which the selectivity ratio was 660 in data set [1] and 4000 in data set [2]. Also, the IC50 was determined as 0.027 µM in data set [3], 0.164 µM in the data set with Plasmodium falciparum and 108 µM in the data set on L6.
Taken in the same sequence, the figures for `N=C(N)c1ccc2[nH]c(Nc3ccc(Cl)cc3)nc2c1` were 60, 2.4, 17 µM, 0.688 µM and 41.6 µM.
For the molecule `N=C(N)c1ccc(Nc2nc3cc(Cl)ccc3[nH]2)cc1`, the selectivity ratio amounted to 53 in data set [1] and 2.4 in data set [2]. The concentration for half-maximal inhibition (IC50) turned out to be 19.6 µM in data set [3], 0.877 µM with Plasmodium falciparum and 46.4 µM in the data set with L6.
Regarding `N=C(N)c1ccc(Nc2nc3ccccc3[nH]2)cc1`, the selectivity ratio in data set [1] was found to be 37; in data set [2] it was 7.7. The half-inhibitory concentration (IC50) in data set [3] was found to be 15.8 µM; in the data set on Plasmodium falciparum it was 3.29 µM; in the data set on L6, 123 µM.
Taken in the same sequence, the figures for `CC(C)CNC(=N)c1ccc(Nc2nc3cc(C(=N)NCC(C)C)ccc3[nH]2)cc1` were 925, 8880, 0.0095 µM, 0.0913 µM and 84.4 µM.
Taken in the same sequence, the figures for `N=C(N)c1ccc2[nH]c(Nc3ccc(Cl)c(Cl)c3)nc2c1` were 280, 1.8, 21.8 µM, 0.138 µM and 39.1 µM.
Taken in the same sequence, the figures for `N=C(N)c1ccc(Nc2nc3cc(C(=N)N)ccc3[nH]2)cc1` were 1560, 22600, 0.00466 µM, 0.0675 µM and 105 µM.
For `N=C(N)c1ccc(Nc2nc3cc(C(F)(F)F)ccc3[nH]2)cc1`, the selectivity ratio is 49 in data set [1] and 2 in data set [2]. For the same molecule, the results for the concentration for half-maximal inhibition (IC50) (in data set [3]; in the data set with Plasmodium falciparum; with L6) were 20.9 µM, 0.853 µM and 41.4 µM, respectively.
Taken in the same sequence, the figures for `N=C(N)c1ccc2[nH]c(Nc3ccccc3)nc2c1` were 43, 4.3, 54.7 µM, 5.46 µM and 237 µM.
Taken in the same sequence, the figures for `Cc1cc2[nH]c(Nc3ccc(C(=N)N)cc3)nc2cc1Cl` were 29, 1.1, 20.7 µM, 0.795 µM and 23.2 µM.
